Data set [1] relates to PS1 WT or FAD mutant γ‐secretase. The data set is described as follows: ELISA of Aβ species in conditioned media of HEK293/sw cells overexpressing WT or mutant PS1. The class given is cell-based, human. The procedure: For GSM treatments, the cells were grown to a confluence of 70–80%. Thereafter, medium was changed to fresh medium containing either DMSO vehicle control or GSM at the indicated concentration and the cells were incubated for 16–18 h before Aβ analysis of conditioned medium. […] Mouse N2a cells stably overexpressing swAPP were cultured in DMEM (high glucose) supplemented with 10% FCS and 1 mM sodium pyruvate and treated with GSM as described above.
(§1) Immunoblot analysis of PS1 and PS2, NCT, full‐length APP, C‐terminal APP fragments, secreted APPs, and Aβ was performed as described 52. To analyze GSM dose responses and determine IC50 values for Aβ42 inhibition, secreted Aβ species of HEK293/sw cells were analyzed by sandwich immunoassay (MSD) using SULFO‐tagged C‐terminal specific antibodies to Aβ38, Aβ40, and Aβ42 as described before 26 or, in case of H4/sw and N2a/sw cells by an Aβ42 AlphaLISA immunoassay kit according to the instructions of the supplier (PerkinElmer). Notch1 cleavage reporter assay was carried out as described 51. GSM‐mediated changes of secreted Aβ species in conditioned medium of PS1 WT or mutant expressing HEK293/sw cells were quantified by ELISA using end‐specific C‐terminal antibodies to Aβ38, Aβ40, Aβ42, and Aβ43 obtained from IBL as described previously 16. Mass spectrometry analysis of secreted Aβ species was performed after immunoprecipitation using antibody 4G8 as described previously 17. Individual Aβ species were analyzed by immunoblotting, using Tris–Bicine urea SDS–PAGE 53. To improve the separation of longer Aβ species (e.g., Aβ42/43), the separation gel was adjusted to 8% acrylamide and 8 M urea. Aβ37 and Aβ38 generated in cell‐free γ‐secretase assays were analyzed by sandwich immunoassay (MSD) as above using SULFO‐tagged species‐specific antibodies. AICD generation in these assays was analyzed by immunoblotting with Penta‐His antibody after sample separation on 10–20% Tris–Tricine gels (Invitrogen). Protein bands from immunoblots were quantified using the LAS‐4000 image reader (Fujifilm Life Science) and Multi‐Gauge V3.0 software for analysis.

The next data set concerns Notch1 cleavage. The data set is described as follows: HEK293 cell‐based Notch1 luciferase reporter assay. The conditions noted are these: Homo sapiens; HEK293‐based Notch1 luciferase reporter cell line; n = 2. The procedure:
(§2) Single‐cell clones of HEK293 cells stably co‐expressing swAPP with WT and mutant PS1 constructs were cultured as described 50. For GSM treatments, the cells were grown to a confluence of 70–80%. Thereafter, medium was changed to fresh medium containing either DMSO vehicle control or GSM at the indicated concentration and the cells were incubated for 16–18 h before Aβ analysis of conditioned medium. Single‐cell clones of H4 overexpressing swAPP and HEK293‐based Notch1 reporter cell lines were cultured and treated with GSM as described 51. […]
(§3) Immunoblot analysis of PS1 and PS2, NCT, full‐length APP, C‐terminal APP fragments, secreted APPs, and Aβ was performed as described 52. To analyze GSM dose responses and determine IC50 values for Aβ42 inhibition, secreted Aβ species of HEK293/sw cells were analyzed by sandwich immunoassay (MSD) using SULFO‐tagged C‐terminal specific antibodies to Aβ38, Aβ40, and Aβ42 as described before 26 or, in case of H4/sw and N2a/sw cells by an Aβ42 AlphaLISA immunoassay kit according to the instructions of the supplier (PerkinElmer). […] GSM‐mediated changes of secreted Aβ species in conditioned medium of PS1 WT or mutant expressing HEK293/sw cells were quantified by ELISA using end‐specific C‐terminal antibodies to Aβ38, Aβ40, Aβ42, and Aβ43 obtained from IBL as described previously 16. […]

For data set [2], the system named is γ‐secretase (total Aβ secretion in HEK293/sw cells). The data set is described as follows: Immunoblot analysis of total Aβ in conditioned media of HEK293/sw cells. The class given is cell-based, human. The protocol: as §2, §3
The subject of data set [3] is PS1 WT or FAD mutant γ‐secretase. The data set is described as follows: Mass spectrometry analysis of Aβ species from HEK293/sw cells overexpressing WT or mutant PS1. The class given is cell-based, human. The note with it: all mutants, 500 nM. The protocol:
as §2, §3

For data set [4], the system named is C99–PS1 interaction (CHAPSO‐solubilized γ‐secretase). Briefly: C99 V44Bpa photocrosslinking to PS1 in CHAPSO lysates. The class given is binding, human. The protocol: Bpa‐containing C99‐based γ‐secretase substrates were prepared as described previously 22. CHAPSO‐lysates were prepared from HEK293/sw cells co‐expressing either PS1 WT or PS1 mutants. Photocrosslinking was performed as described before 22. Crosslinking of the substrates was analyzed by immunoblotting using antibodies against the PS1 NTF as described 22. For substrate crosslinking experiments in the presence of RO7019009, the cell lysates were pre‐incubated for 30 min on ice with RO7019009 or DMSO vehicle before the addition of C99 V44Bpa and subsequent photocrosslinking.

Data set [5] deals with CHAPSO‐solubilized γ‐secretase. The data set is described as follows: Cell‐free γ‐secretase assay with recombinant C100‐His6 (AICD generation). It counts as biochemical, human. The conditions noted are these: 2.5 μM, WT and mutant PS1. The protocol:
as §1, with “Mass spectrometry analysis of secreted Aβ species was performed after immunoprecipitation using antibody 4G8 as described previously 17.” left out, “To improve the separation of longer Aβ species (e.g., Aβ42/43), the separation gel was adjusted to 8% acrylamide and 8 M urea.” left out, “analysis. […]” for “analysis.”

A short description of another data set: Solubility. It counts as physicochemical. From the text:
Supplement EMBR-21-e47996-s003.docx, table 1: Table EV1. RO7019009 key physicochemical and pharmacokinetic properties predicting CNS drug-likeness | column: Solubility (µg/ml)

Data set [6] is described as follows: LogD (octanol-water distribution coefficient). The conditions noted are these: pH 7.4. It counts as physicochemical. From the text:
(§4) ^aLogD= logarithm of the octanol-water distribution coefficient at pH 7.4; ^bPAMPA: Parallel artificial membrane parallel assay; ^cCLmicr (h/m): human/mouse microsomal clearance

The next data set can be described thus: PAMPA permeability. The class given is in vitro ADME.
Description: as §4

Data set [7] can be described thus: Human microsomal clearance. It counts as in vitro ADME. The note with it: human microsomes, read-out: CLmicr human microsomal clearance.
Description: as §4

Data set [8] can be described thus: Mouse microsomal clearance. The class given is in vitro ADME. The conditions noted are these: mouse microsomes, read-out: CLmicr mouse microsomal clearance.
Description: as §4

Data set [9] addresses C99 V44Bpa. The data set is described as follows: photocrosslinking of C99 V44Bpa to PS1 NTF, immunoblot quantitation. The note with it: box plot median, n = 7–11 biological replicates, read off a plot.
Data set [10] deals with C99 V44Bpa. Briefly: photocrosslinking of C99 V44Bpa to full-length PS1, immunoblot quantitation. The note with it: box plot median, n = 7–11 biological replicates, read off a plot.
Where [11] appears, read: PS1 L166P mutant, HEK293/sw cells.
Setting [12] is: PS1 R278I and L166P mutants, HEK293/sw cells.
The mark [13] stands for this setting: PS1 R278I mutant, HEK293/sw cells.
Where [14] appears, read: RO7019009 50 nM, parent: est. 1.0.
Where [15] appears, read: RO7019009 500 nM, parent: est. 0.90.
The mark [16] stands for this setting: RO7019009 2500 nM, parent: est. 0.49.

Data on ten molecules can be found in publication PMC6945062, “Aβ43‐producing PS1 FAD mutants cause altered substrate interactions and respond to γ‐secretase modulation” (EMBO Reports, 2019).

Converted amounts (≈) assume the structure as drawn.

Regarding `CC(C)CC[C@H](c1ccc(Cl)cc1)N1CC[C@@H](CC(=O)O)C[C@H]1c1ccc(C(F)(F)F)cc1` [GSM‐1], the Aβ43 production result in data set [1] (setting [11]) is recorded as “only poorly, if at all”; in [1] (setting [13]), “weakly reduced”. For the same molecule, the Aβ42 levels entry in data set [1] (setting [12]) is “remained unaffected”.

On to `Cc1nsc(N2C[C@H]3CC[C@@H](C2)[C@@H]3Nc2nc3c(-c4ccc(F)c(F)c4F)cccn3n2)n1` [RO7019009], for which the IC50 in the data set with Notch1 cleavage is greater than 10 µM. Besides, the Aβ42 levels result in data set [1] (PS1 L166P mutant, 50 to 500 nM) was “remained largely unaffected”; in data set [1] (V261F, R278I and L166P mutants, 500 nM), “small, yet significant, reproducible reduction”. Besides, in data set [1] (PS1 V261F and R278I mutants, 50 to 500 nM), the “Aβ42‐lowering response” value was “partially resistant”. The “generation of Aβ43” value in [1] (all PS1 mutants, 50 to 500 nM) is given as “reduced the generation of Aβ43 for all mutants”. In addition, in data set [2], the “total Aβ levels” value is “did not reduce”. Moreover, the Aβ40 levels result in data set [3] is “nearly complete reduction”. The “crosslinking of C99 V44Bpa to PS1” value in [4] (PS1 Y256S and R278I mutants) is recorded as “unchanged crosslinking”. Besides, in data set [4] (WT PS1, increasing concentrations), the “crosslinking of C99 V44Bpa to PS1 NTF” value is given as “reduced”. The “total AICD generation” value in data set [5] is reported as “not or only marginally reduced”. This molecule showed a solubility in “Solubility” of 3 µg/mL (≈ 6.36 µM). The molecule further yielded a logD in [6] of 4. Besides, in the data set “PAMPA permeability”, the “PAMPA (permeability)” value is given as “High”. The microsomal CLint in data set [7] and in [8] was less than 10 µL/min/mg in each case.

Take `COc1cc(Nc2cc(Cc3ccc(Cl)cc3)cc(C(C)(C)O)c2)ccc1-n1cnc(C)c1` [RO‐02]: the Aβ43 production result in data set [1] (setting [11]) is recorded as “only poorly, if at all”; in data set [1] (setting [13]), “weakly reduced”. The Aβ42 levels result in [1] (setting [12]) is reported as “remained unaffected”.

Take “presenilin 1 (PS1) WT (from UniProt P49768) G382A”: the other: V44 CL efficiency (Rel. to DMSO-treated), median turned out to be 0.93 with C99 V44Bpa [9] (setting [14]), 0.87 with C99 V44Bpa [9] (setting [15]) and 0.67 in the data set with C99 V44Bpa [9] (setting [16]).

As to “presenilin 1 (PS1) WT (from UniProt P49768) L166P”, the results for the other: V44 CL efficiency (Rel. to DMSO-treated), median with C99 V44Bpa [9] (setting [14]), with C99 V44Bpa [9] (setting [15]) and with C99 V44Bpa [9] (setting [16]) were 1, 0.93 and 0.73, respectively.

“presenilin 1 (PS1) WT (from UniProt P49768) L435F”: the results for the other: V44 CL efficiency (Rel. to DMSO-treated), median with C99 V44Bpa [10] (RO7019009 50 nM), with C99 V44Bpa [10] (RO7019009 500 nM) and with C99 V44Bpa [10] (RO7019009 2500 nM) were 1, 0.78 and 0.6, respectively.

In the case of “presenilin 1 (PS1) WT (from UniProt P49768) M292D”, the other: V44 CL efficiency (Rel. to DMSO-treated), median in the data set with C99 V44Bpa [10] (RO7019009 50 nM) turned out to be 1.1; with C99 V44Bpa [10] (RO7019009 500 nM), 0.92; in the data set with C99 V44Bpa [10] (RO7019009 2500 nM), 0.65.

As to “presenilin 1 (PS1) WT (from UniProt P49768) R278I”, the other: V44 CL efficiency (Rel. to DMSO-treated), median with C99 V44Bpa [10] (RO7019009 50 nM) was determined as 1; with C99 V44Bpa [10] (RO7019009 500 nM), 1; with C99 V44Bpa [10] (RO7019009 2500 nM), 0.92.

“presenilin 1 (PS1) WT (from UniProt P49768) V261F”: the other: V44 CL efficiency (Rel. to DMSO-treated), median stood at 0.95 with C99 V44Bpa [10] (RO7019009 50 nM), 0.65 in the data set with C99 V44Bpa [10] (RO7019009 500 nM) and 0.62 in the data set with C99 V44Bpa [10] (RO7019009 2500 nM).

Consider “presenilin 1 (PS1) WT (from UniProt P49768) Y256S”, for which the other: V44 CL efficiency (Rel. to DMSO-treated), median with C99 V44Bpa [9] (setting [14]) was found to be 1.1; with C99 V44Bpa [9] (setting [15]), 0.88; with C99 V44Bpa [9] (setting [16]), 0.95.
